In patent publication US20250171490A1, “DHEA-DERIVED STEROIDS” (DEBRECENI EGYETEM, priority 2022, published 2025):
Several values for one entry are separate records, joined by “and”; a condition that tells them apart may be missing. Equal entries are not always repeated. Entries after “also recorded” stand apart in the source; their conditions may differ.

Columns and labels:
Assay type in all cases: in vivo
ApoE^−/− mice [1] = test: Survival of ApoE−/− mice during treatment; details: atherogenic diet; for survival / mortality of mice / mouse death before the end of the experiment: 8 weeks treatment
Description: (§1) All the animal experiments were approved by the guidelines from Directive 2010/63/EU of the European Parliament on the protection of animals used for scientific purposes. Animal experiments performed in this study were approved by the Scientific and Research Ethics Committee of the Scientific Council of Health of the Hungarian Government under the registration number of DE MÁB/157-5/2010 and are reported in accordance with the ARRIVE guidelines. C57BL/6 ApoE^−/− mice (The Jackson Laboratory; B6.129P2 Apoetm1Unc/J; RRID: IMSR_JAX: 002052) were maintained at the University of Debrecen under specific pathogen-free conditions in accordance with guidelines from Institutional Ethical Committee. To induce atherosclerotic plaque formation, standard chow diet was changed to atherogenic diet (15% fat, 1.25% cholesterol, ssniff Spezialdiäten GmbH, Soest, Germany) at the age of 8 weeks. Mice were randomly divided into two groups and parallelly with the atherogenic diet, mice received tap-water or DHEA-derived steroid (100 μg steroid/mouse/day) in tap-water. The DHEA-derived steroid was replaced every day. Aortas were harvested after 8 weeks of treatment. All mice were euthanized by a predictable and controllable administering of slow-fill compressed CO2 asphyxiation. Atherogenic food composition (high-fat diet): Crude Nutrients (%): Crude Protein 19%; crude fat 15.2%; crude fiber 3.4%; crude ash 6.3%; starch 25.6%; sugar 11.2%; Additives (per kg): vitamin A 15,000 IU; vitamin D3 1,000 IU; vitamin E 110 mg; vitamin K3 5 mg; vitamin C 0 mg; copper 13 mg.

ApoE^−/− mice [2] = test: Atherosclerotic plaque formation in ApoE−/− mice on atherogenic diet, en face Oil Red O staining of whole aorta (preventive treatment); details: 100 μg steroid/mouse/day in tap-water, 8 weeks, vs tap water control
Description: as §1
(§2) Aortas were dissected from the aortic arch to the iliac bifurcation. After that, the fatty tissue was carefully removed under a stereomicroscope (M125; Leica Biosystems Nussloch GmbH). […] 0.07 g ORO powder was dissolved in 25 mL methanol and mixed for 10 min on a magnetic stirrer. Finally, 10 mL 1 mol/L NaOH was added to the ORO solution and filtered it. Images were taken with the camera (Nikon D3200; Nikon Corp., Japan) and whole aorta plaque area was analyzed with ImageJ 1.49 software.

ApoE^−/− mice [3] = test: Aortic valve calcification in ApoE−/− mice on high-fat diet, von Kossa staining (preventive treatment); details: 8 weeks; for calcification / mineralization of aortic valve (von Kossa): treatment in drinking water, vs tap water
Description: as §1
(§3) Immunohistochemistry from the aortic root was performed on formalin-fixed, paraffin-embedded tissue sections. 4 μm slides were then deparaffinated using xylol and ethanol. The serial sections were stained with Gill Hematoxylin solution (Merck) followed by eosin counterstaining or with von Kossa. For digital documentation, the stained specimens were scanned with a Mirax Midi scanner (3D Histech, Budapest, Hungary). Macroscopic pictures of the arteries were taken with Nikon D3200 camera (Nikon Corp.; Minato, Tokyo, Japan).

H2S = test: Sulfide (H2S) level of mice plasma, zinc precipitation assay
Description: as §1
Sulfide levels were measured with zinc precipitation method based upon developed by Gilboa-Garber [Gilboa-Garber N. 1971] and modified by A. D. Ang et al. [Ang A D, et al. 2012]. The human carotid artery was homogenized under liquid nitrogen in 7.4 pH PBS and sonicated it. […] After 10 min the absorbance of the generated methylene blue (MB) was measured with a spectrophotometer at 667 nm. Since during the reaction 1 mol/L MB formed from 1 mol/L sulfide, the concentration was determined by the MB's extinction coefficient (30 200 M 1 cm 1). […]

ApoE^−/− mice [4] = test: Reversal of already formed aortic valve calcification in ApoE−/− mice, von Kossa (therapeutic treatment); details: for already formed aortic valve extracellular matrix mineralization (von Kossa): high-fat diet 6 weeks, then chop diet plus S2 in tap water for 4 weeks, vs tap water, sodium salt
Description: (§4) In the further part of the present work, it was examined whether the compounds of the invention have positive therapeutic effect, too. In the above-mentioned animal model, the present inventors developed during eight weeks real atherosclerosis, and for an additional eight weeks animals were given S2 compound (100 micrograms per day per animal). Control mice got pure drinking water. At the end of experiment the size and number of sclerotic plaques, the calcification of heart valves and the amount of hydrogen sulfide was measured. […] This means the compounds of the invention have not only preventive, but also therapeutic effect.
as §3
(§5) From a pharmacological point of view to the best of inventors' knowledge, there is no medicine in the market to reverse atherosclerosis and calcification of vessels. Current drugs only slow down the progression of atherosclerosis. Therefore, the present inventors examined the possibility of S2 steroid treatment to reverse the already formed atherosclerotic lesion and calcification. In this experiment the present inventors kept the mice on atherogenic diet for 4 or 6 weeks for development of atherosclerotic lesion and calcification. After that the present inventors changed the atherogenic diet to chop diet and they added S2 steroid to the mice's water for 4 weeks and 8 weeks. Control group got tap water only.

ApoE^−/− mice [5] = test: Reversal of already formed atherosclerotic lesion in ApoE−/− mice, Oil Red O (therapeutic treatment); details: for already formed atherosclerotic lesion (plaque size, Oil Red O): atherogenic diet 4 or 6 weeks, then chop diet plus S2 in water for 4 or 8 weeks, vs tap water, sodium salt
Description: as §4, §2, §5

[6] = listed as DHEA-derived steroid, sodium salt
[7] = atherosclerosis developed during eight weeks, then 100 micrograms per day per animal for additional eight weeks, vs drinking water
[8] = listed as DHEA-derived S2 steroid

Molecule | survival / mortality of mice (ApoE^−/− mice [1]) | atherosclerotic plaque formation / area of atherosclerotic lesion (Oil Red O, whole aorta) (ApoE^−/− mice [2]; sodium salt) | day of the treatment regime on which the first treated animal died (ApoE^−/− mice [1]) | mouse death before the end of the experiment (ApoE^−/− mice [1]) | calcification / mineralization of aortic valve (von Kossa) (ApoE^−/− mice [3]) | atherosclerotic plaque formation / area of atherosclerotic lesion (Oil Red O, whole aorta) (ApoE^−/− mice [2]) | other results
CCCCCC(=O)OC1CC[C@H]2[C@@H]3CC=C4CC(OS(=O)(=O)[O-])CC[C@]4(C)[C@H]3CC[C@]12C.[Na+] (some centres unmarked) [C6, 17-hexanoyloxy-5-androstene-3-sulfate sodium salt] | survived | fail to inhibit atherosclerosis; also recorded: not Able to Abrogate Atherosclerotic Plaque Formation |  |  |  |  | 
CCCCCCCCCCCC(=O)OC1CC[C@H]2[C@@H]3CC=C4CC(OS(=O)(=O)[O-])CC[C@]4(C)[C@H]3CC[C@]12C.[Na+] (some centres unmarked) [S2, 17-lauroyloxy-5-androstene-3-sulphate sodium salt] | survived | highly efficient both in the prevention and reversal of atherosclerosis |  |  |  |  | lower mineralized area of aortic valves calcification nodules compared to tap-water mice (ApoE^−/− mice [3]; steroid in drinking water): 91.2%; calcification / mineralization of aortic valve (von Kossa) (ApoE^−/− mice [3]; [6]): decreases the expansion of the extracellular matrix; also recorded: significantly inhibited the development of calcific nodules in aortic valves; atherosclerotic plaque formation / area of atherosclerotic lesion (Oil Red O, whole aorta) (ApoE^−/− mice [2]; [6]): inhibits atherosclerosis; also recorded: significantly lesser area of atherosclerotic lesion; H2S content of mice plasma (H2S; ApoE−/− mice, steroid treated vs tap-water): elevates H2S content of the mice plasma; plasma H2S concentration compared to control mice plasma (H2S; ApoE−/− mice, steroid treated vs tap-water, normalized to protein content): approximately 2.4 times; concentration of hydrogen sulfide (H2S; [7]): significantly higher; calcification of heart valves (ApoE^−/− mice [4]; [7]): significantly less; already formed aortic valve extracellular matrix mineralization (von Kossa) (ApoE^−/− mice [4]; [8]): reverses atherosclerosis and aortic valve calcification; already formed aortic valve extracellular matrix mineralization (von Kossa) (ApoE^−/− mice [4]): significant lesser extracellular matrix mineralization; already formed atherosclerotic lesion (plaque size, Oil Red O) (ApoE^−/− mice [5]; [8]): reverses atherosclerosis; already formed atherosclerotic lesion (plaque size, Oil Red O) (ApoE^−/− mice [5]): significantly lesser atherosclerotic lesion; size and number of sclerotic plaques (ApoE^−/− mice [5]; [7]): significantly less
CCCCCCCCCCCCCCCC(=O)OC1CC[C@H]2[C@@H]3CC=C4CC(OS(=O)(=O)[O-])CC[C@]4(C)[C@H]3CC[C@]12C.[Na+] (some centres unmarked) [C16, 17-palmitoyloxy-5-androstene-3-sulfate sodium salt] | survived | fail to inhibit atherosclerosis; also recorded: not Able to Abrogate Atherosclerotic Plaque Formation |  |  |  |  | 
Dehydroepiandrosterone sulfate [DHEA-S] | elevated mortality rate of the animals |  | 55 days | 22% and 28.6% | cannot decrease the mineralization of extracellular matrix of aortic valve; also recorded: Failed to Prevent Calcification of Aortic Valve | fail to inhibit atherosclerosis; also recorded: not Able to Abrogate Atherosclerotic Plaque Formation | atherosclerotic plaque formation / area of atherosclerotic lesion (Oil Red O, whole aorta) (ApoE^−/− mice [2]; listed as DHEAS): did not diminish the development of atherosclerosis
C[C@]12CC[C@H](O)CC1=CC[C@@H]1[C@@H]2CC[C@]2(C)C(=O)CC[C@@H]12 [DHEA, Dehydroepiandrosterone] | elevated mortality rate of the animals |  | 50 days | 45% and 45.5% | cannot decrease the mineralization of extracellular matrix of aortic valve; also recorded: Failed to Prevent Calcification of Aortic Valve | fail to inhibit atherosclerosis; also recorded: did not diminish the development of atherosclerosis; also recorded: not Able to Abrogate Atherosclerotic Plaque Formation | 
